Data published in patent US20260042731A1, “(2,4-DICHLOROPHENOXY)ACETIC ACID ANALOGS” (CORTEVA AGRISCIENCE LLC, priority 2022, published 2026).
Where two headings read alike, the source gives them in different places.

Legend:
[1] = Volatility of compounds measured by thermogravimetric analysis (TGA); type: physicochemical
[2] = system: Amaranthus rudis (AMATA), tall water hemp; assay: Postemergence herbicide evaluation, growth of Amaranthus rudis (AMATA); type: in vivo; details: for pest or weed control at 280 g/ha / pest or weed control at 560 g/ha: Amaranthus tuberculatus, post-emergence, read-out: Ave. AMATA, percent reduction in plant size relative to the untreated control; for Ave. AMATA: percent reduction in plant size vs untreated control
[3] = system: Ambrosia artemisiifolia (AMBEL), common ragweed; assay: Postemergence herbicide evaluation, growth of Ambrosia artemisiifolia (AMBEL); type: in vivo; details: for pest or weed control at 280 g/ha / pest or weed control at 560 g/ha: Ambrosia artemisiifolia, post-emergence, read-out: AVE. AMBEL, percent reduction in plant size relative to the untreated control; for AVE. AMBEL: percent reduction in plant size vs untreated control
[4] = system: Abutilon theophrasti (ABUTH), velvetleaf; assay: Postemergence herbicide evaluation, growth of Abutilon theophrasti (ABUTH); type: in vivo; details: for pest or weed control at 280 g/ha / pest or weed control at 560 g/ha: Abutilon theophrasti, post-emergence, read-out: AVE. ABUTH, percent reduction in plant size relative to the untreated control; for AVE. ABUTH: percent reduction in plant size vs untreated control
[5] = system: Common Lambsquarters (CHEAL); assay: Greenhouse post-emergence mixture trials, percent visual control; type: in vivo; details: CHEAL, 21 DAA, Trial Bridge 2, compound 560 g ae/ha + Saflufenacil 75 g ai or ae/ha
[6] = system: Chenopodium album (CHEAL), common lambsquarters; assay: Postemergence herbicide evaluation, growth of Chenopodium album (CHEAL); type: in vivo; details: for pest or weed control at 280 g/ha / pest or weed control at 560 g/ha: Chenopodium album, post-emergence, read-out: Ave. CHEAL, percent reduction in plant size relative to the untreated control; for Ave. CHEAL: percent reduction in plant size vs untreated control
[7] = system: Corn (ZEAMX); assay: Greenhouse post-emergence mixture trials, percent visual control; type: in vivo; details: ZEAMX, 21 DAA
[8] = system: weeds ABUTH, AMATA, AMBEL, CHEAL, ERICA; assay: Postemergence herbicide evaluation, overall average % weed control (ABUTH, AMATA, AMBEL, CHEAL, ERICA); type: in vivo; details: post-emergence, read-out: Overall Ave % Weed Control; for pest or weed control at 280 g/ha: 280 g ae/ha; for pest or weed control at 560 g/ha: 560 g ae/ha
[9] = system: glyphosate resistant Conyza canadensis (L.) (ERICA), horseweed; assay: Postemergence herbicide evaluation, growth of Conyza canadensis (ERICA); type: in vivo; details: for pest or weed control at 280 g/ha / pest or weed control at 560 g/ha: Erigeron canadensis, post-emergence, read-out: Ave. ERICA, percent reduction in plant size relative to the untreated control; for Ave. ERICA: percent reduction in plant size vs untreated control
[10] = system: weeds ABUTH, AMATA, AMBEL, CHEAL, ERICA; assay: Postemergence herbicide evaluation, overall average % weed control across ABUTH, AMATA, AMBEL, CHEAL and ERICA; type: in vivo; details: average over five weeds
[11] = system: Glycine max (Enlist E3 traited soybeans, GLXMA); details: Enlist E3 soybean, percent reduction in plant size vs untreated control

Structure (SMILES): O=C(COc1ccc(Cl)cc1Cl)Nc1ccon1 [Compound D2, 2-(2,4-Dichlorophenoxy)-N-(isoxazol-3-yl)acetamide]
- TGA Data (rate of weight loss, volatility) [1]: 0.2 µg/min
- pest or weed control at 280 g/ha ([2]; 168 h, 280 g ae/ha, 7 DAA): 70%
- pest or weed control at 560 g/ha ([2]; 168 h, 560 g ae/ha, 7 DAA): 78%
- pest or weed control at 280 g/ha ([2]; 336 h, 280 g ae/ha, 14 DAA): 85%
- pest or weed control at 560 g/ha ([2]; 336 h, 560 g ae/ha, 14 DAA): 92%
- pest or weed control at 280 g/ha ([2]; 504 h, 280 g ae/ha, 21 DAA): 94%
- pest or weed control at 560 g/ha ([2]; 504 h, 560 g ae/ha, 21 DAA): 97%
- pest or weed control at 280 g/ha ([3]; 168 h, 280 g ae/ha, 7 DAA): 68%
- pest or weed control at 560 g/ha ([3]; 168 h, 560 g ae/ha, 7 DAA): 73%
- pest or weed control at 280 g/ha ([3]; 336 h, 280 g ae/ha, 14 DAA): 89%
- pest or weed control at 560 g/ha ([3]; 336 h, 560 g ae/ha, 14 DAA): 97%
- pest or weed control at 280 g/ha ([3]; 504 h, 280 g ae/ha, 21 DAA): 100%
- pest or weed control at 560 g/ha ([3]; 504 h, 560 g ae/ha, 21 DAA): 97%
- pest or weed control at 280 g/ha ([4]; 168 h, 280 g ae/ha, 7 DAA): 78%
- pest or weed control at 560 g/ha ([4]; 168 h, 560 g ae/ha, 7 DAA): 88%
- pest or weed control at 280 g/ha ([4]; 336 h, 280 g ae/ha, 14 DAA): 83%
- pest or weed control at 560 g/ha ([4]; 336 h, 560 g ae/ha, 14 DAA): 93%
- pest or weed control at 280 g/ha ([4]; 504 h, 280 g ae/ha, 21 DAA): 80%
- pest or weed control at 560 g/ha ([4]; 504 h, 560 g ae/ha, 21 DAA): 99%
- % Control [5]: 100%
- pest or weed control at 280 g/ha ([6]; 168 h, 280 g ae/ha, 7 DAA): 70%
- pest or weed control at 560 g/ha ([6]; 168 h, 560 g ae/ha, 7 DAA): 73%
- pest or weed control at 280 g/ha ([6]; 336 h, 280 g ae/ha, 14 DAA): 73%
- pest or weed control at 560 g/ha ([6]; 336 h, 560 g ae/ha, 14 DAA): 88%
- pest or weed control at 280 g/ha ([6]; 504 h, 280 g ae/ha, 21 DAA): 78%
- pest or weed control at 560 g/ha ([6]; 504 h, 560 g ae/ha, 21 DAA): 97%
- % Control ([7]; Trial Bridge 1, compound 1120 g ae/ha + Glufosinate 600 g ai or ae/ha): 5%
- plant injury at 560 g/ha ([7]; Zea mays, post-emergence, 504 h, compound 560 g ae/ha, no mixing partner, Trial Bridge 3): 5%
- pest or weed control at 280 g/ha ([8]; 168 h, 7 DAA): 71%
- pest or weed control at 560 g/ha ([8]; 168 h, 7 DAA): 77%
- pest or weed control at 280 g/ha ([8]; 336 h, 14 DAA): 83%
- pest or weed control at 560 g/ha ([8]; 336 h, 14 DAA): 92%
- pest or weed control at 280 g/ha ([8]; 504 h, 21 DAA): 88%
- pest or weed control at 560 g/ha ([8]; 504 h, 21 DAA): 98%
- pest or weed control at 280 g/ha ([9]; 168 h, 280 g ae/ha, 7 DAA): 68%
- pest or weed control at 560 g/ha ([9]; 168 h, 560 g ae/ha, 7 DAA): 73%
- pest or weed control at 280 g/ha ([9]; 336 h, 280 g ae/ha, 14 DAA): 88%
- pest or weed control at 560 g/ha ([9]; 336 h, 560 g ae/ha, 14 DAA): 94%
- pest or weed control at 280 g/ha ([9]; 504 h, 280 g ae/ha, 21 DAA): 91%
- pest or weed control at 560 g/ha ([9]; 504 h, 560 g ae/ha, 21 DAA): 99%

Structure (SMILES): CC(C)CCCCCOC(=O)COc1ccc(Cl)cc1Cl [Isooctyl Ester, 2,4-D-isoctyl, reference compound]
- Overall Ave % Weed Control ([10]; 280 g ae/ha, 7 DAA): 80.5%
- Overall Ave % Weed Control ([10]; 280 g ae/ha, 14 DAA): 89%
- Overall Ave % Weed Control ([10]; 280 g ae/ha, 21 DAA): 91.3%
- Overall Ave % Weed Control ([10]; 560 g ae/ha, 7 DAA): 78%
- Overall Ave % Weed Control ([10]; 560 g ae/ha, 14 DAA): 94.2%
- Overall Ave % Weed Control ([10]; 560 g ae/ha, 21 DAA): 95.6%
- Ave. AMATA ([2]; 280 g ae/ha, 7 DAA): 80%
- Ave. AMATA ([2]; 280 g ae/ha, 14 DAA): 92.5%
- Ave. AMATA ([2]; 280 g ae/ha, 21 DAA): 65%
- Ave. AMATA ([2]; 560 g ae/ha, 7 DAA): 85%
- Ave. AMATA ([2]; 560 g ae/ha, 14 DAA): 87.5%
- Ave. AMATA ([2]; 560 g ae/ha, 21 DAA): 85%
- AVE. AMBEL ([3]; 280 g ae/ha, 7 DAA): 82.5%
- AVE. AMBEL ([3]; 280 g ae/ha, 14 DAA): 77.5%
- AVE. AMBEL ([3]; 280 g ae/ha, 21 DAA): 100%
- AVE. AMBEL ([3]; 560 g ae/ha, 7 DAA): 65%
- AVE. AMBEL ([3]; 560 g ae/ha, 14 DAA): 90%
- AVE. AMBEL ([3]; 560 g ae/ha, 21 DAA): 100%
- AVE. GLXMA ([11]; 280 g ae/ha, 7 DAA): 0%
- AVE. GLXMA ([11]; 280 g ae/ha, 14 DAA): 0%
- AVE. GLXMA ([11]; 280 g ae/ha, 21 DAA): 0%
- AVE. GLXMA ([11]; 560 g ae/ha, 7 DAA): 0%
- AVE. GLXMA ([11]; 560 g ae/ha, 14 DAA): 0%
- AVE. GLXMA ([11]; 560 g ae/ha, 21 DAA): 0%
- AVE. ABUTH ([4]; 280 g ae/ha, 7 DAA): 72.5%
- AVE. ABUTH ([4]; 280 g ae/ha, 14 DAA): 80%
- AVE. ABUTH ([4]; 280 g ae/ha, 21 DAA): 97.5%
- AVE. ABUTH ([4]; 560 g ae/ha, 7 DAA): 77.5%
- AVE. ABUTH ([4]; 560 g ae/ha, 14 DAA): 98.5%
- AVE. ABUTH ([4]; 560 g ae/ha, 21 DAA): 100%
- Ave. CHEAL ([6]; 280 g ae/ha, 7 DAA): 82.5%
- Ave. CHEAL ([6]; 280 g ae/ha, 14 DAA): 95%
- Ave. CHEAL ([6]; 280 g ae/ha, 21 DAA): 96%
- Ave. CHEAL ([6]; 560 g ae/ha, 7 DAA): 77.5%
- Ave. CHEAL ([6]; 560 g ae/ha, 14 DAA): 96.5%
- Ave. CHEAL ([6]; 560 g ae/ha, 21 DAA): 93.5%
- Ave. ERICA ([9]; 280 g ae/ha, 7 DAA): 85%
- Ave. ERICA ([9]; 280 g ae/ha, 14 DAA): 100%
- Ave. ERICA ([9]; 280 g ae/ha, 21 DAA): 98%
- Ave. ERICA ([9]; 560 g ae/ha, 7 DAA): 85%
- Ave. ERICA ([9]; 560 g ae/ha, 14 DAA): 98.5%
- Ave. ERICA ([9]; 560 g ae/ha, 21 DAA): 99.5%
